Results on three compounds are retold here after ChEMBL document CHEMBL2401644, “Synthesis and biological evaluation of new chlorin derivatives as potential photosensitizers for photodynamic therapy” (Bioorg Med Chem, 2013).

The nature of series [1]: Biodistribution in serum of BALB/c mouse allografted with mouse C26 cells at 10 mg/kg, iv after 6 hrs. The series is classed as ADME, organism-based. More on the design: dose 10 mg/kg, route intravenous. The following applies: read-out: Drug uptake.
Series [2] relates to Muscle tissue. Briefly: Biodistribution in muscle of BALB/c mouse allografted with mouse C26 cells at 10 mg/kg, iv after 24 hrs. Type of series: ADME, organism-based. The following applies: in vivo. More on the design: dose 10 mg/kg, route intravenous.
Series [3] deals with C26. Briefly: Antitumor activity against mouse C26 cells allografted in BALB/c mouse assessed as reduction in nuclei size of tumor cells at 10 mg/kg, iv administered for 3 hrs followed by light irradiation measured after 3 days by hematoxylin and eosin staining relative to control. The series is classed as functional, organism-based. More on the design: dose 10 mg/kg.
Series [4] deals with C26. Briefly: Antitumor activity against mouse C26 cells allografted in BALB/c mouse assessed as sparsely distributed cell nuclei of tumor cells at 10 mg/kg, iv administered for 3 hrs followed by light irradiation measured after 3 days by hematoxylin and eosin staining relative to control. The series is classed as functional, organism-based. More on the design: dose 10 mg/kg.

Series [5] has as its system Lung. Briefly: Biodistribution in lung of BALB/c mouse allografted with mouse C26 cells at 10 mg/kg, iv after 24 hrs. Type of series: ADME, organism-based. More on the design: dose 10 mg/kg, route intravenous. The following applies: in vivo.
For series [6], the system named is Brain. Briefly: Biodistribution in brain of BALB/c mouse allografted with mouse C26 cells at 10 mg/kg, iv after 24 hrs. Type of series: ADME, organism-based. The following applies: in vivo. Set-up: dose 10 mg/kg, route intravenous.
Series [7] can be described thus: Solubility of the compound in water. Type of series: physicochemical.
Series [8] concerns Kidney. Briefly: Biodistribution in kidney of BALB/c mouse allografted with mouse C26 cells at 10 mg/kg, iv after 3 hrs. The series is classed as ADME, organism-based. More on the design: dose 10 mg/kg, route intravenous. The following applies: in vivo.
Series [9] relates to C26. In words: Antitumor activity against mouse C26 cells allografted in BALB/c mouse assessed as reduction in nuclei number of tumor cells at 10 mg/kg, iv administered for 3 hrs followed by light irradiation measured after 3 days by hematoxylin and eosin staining relative to control. The series is classed as functional, organism-based. More on the design: dose 10 mg/kg.
The subject of series [10] is Brain. In words: Biodistribution in brain of BALB/c mouse allografted with mouse C26 cells at 10 mg/kg, iv after 3 hrs. The following applies: in vivo. The series is classed as ADME, organism-based. Set-up: dose 10 mg/kg, route intravenous.
The test system of series [11] is Kidney. In words: Biodistribution in kidney of BALB/c mouse allografted with mouse C26 cells at 10 mg/kg, iv after 24 hrs. Type of series: ADME, organism-based. Set-up: dose 10 mg/kg, route intravenous. The following applies: in vivo.
For series [12], the system named is Liver. Briefly: Biodistribution in liver of BALB/c mouse allografted with mouse C26 cells at 10 mg/kg, iv after 24 hrs. Type of series: ADME, organism-based. More on the design: dose 10 mg/kg, route intravenous. The following applies: in vivo.
Series [13] has as its system Lung. In words: Biodistribution in lung of BALB/c mouse allografted with mouse C26 cells at 10 mg/kg, iv after 3 hrs. Type of series: ADME, organism-based. Set-up: dose 10 mg/kg, route intravenous. The following applies: in vivo.
The subject of series [14] is Zone of skin. In words: Biodistribution in skin of BALB/c mouse allografted with mouse C26 cells at 10 mg/kg, iv after 3 hrs. The following applies: in vivo. The series is classed as ADME, organism-based. Set-up: dose 10 mg/kg, route intravenous.
Series [15] relates to Mus musculus. Briefly: Toxicity against BALB/c mouse allografted with mouse C26 cells assessed as cellular damage in kidney at 10 mg/kg, iv administered for 3 hrs followed by irradiation measured after 3 days by hematoxylin and eosin staining. The series is classed as organism-based. More on the design: dose 10 mg/kg, route intravenous. The following applies: in vivo, 72 h.

Series [16] can be described thus: Biodistribution in serum of BALB/c mouse allografted with mouse C26 cells at 10 mg/kg, iv after 1 hr. Set-up: dose 10 mg/kg, route intravenous. Type of series: ADME, organism-based. The following applies: read-out: Drug uptake.
In series [17] the test system is Mus musculus. In words: Biodistribution in tumor of BALB/c mouse allografted with mouse C26 cells at 10 mg/kg, iv after 1 to 24 hrs. The series is classed as ADME, organism-based, Neoplasm. Set-up: dose 10 mg/kg, route intravenous. The following applies: in vivo.
The subject of series [18] is Serum. Briefly: Biodistribution in serum of BALB/c mouse allografted with mouse C26 cells at 10 mg/kg, iv after 24 hrs. Type of series: ADME, organism-based. More on the design: dose 10 mg/kg, route intravenous. The following applies: in vivo.
Series [19] deals with Spleen. In words: Biodistribution in spleen of BALB/c mouse allografted with mouse C26 cells at 10 mg/kg, iv after 24 hrs. Type of series: ADME, organism-based. More on the design: dose 10 mg/kg, route intravenous. The following applies: in vivo.
Series [20] can be described thus: Biodistribution in tumor of BALB/c mouse allografted with mouse C26 cells at 10 mg/kg, iv after 3 hrs. Type of series: ADME, organism-based, Neoplasm. More on the design: dose 10 mg/kg, route intravenous. The following applies: read-out: Drug uptake.
The subject of series [21] is Muscle tissue. Briefly: Biodistribution in muscle of BALB/c mouse allografted with mouse C26 cells at 10 mg/kg, iv after 3 hrs. The following applies: in vivo. Set-up: dose 10 mg/kg, route intravenous. The series is classed as ADME, organism-based.
Series [22] has as its system Spleen. In words: Biodistribution in spleen of BALB/c mouse allografted with mouse C26 cells at 10 mg/kg, iv after 3 hrs. Set-up: dose 10 mg/kg, route intravenous. The following applies: in vivo. The series is classed as ADME, organism-based.
Series [23] concerns Zone of skin. In words: Biodistribution in skin of BALB/c mouse allografted with mouse C26 cells at 10 mg/kg, iv after 24 hrs. Type of series: ADME, organism-based. More on the design: dose 10 mg/kg, route intravenous. The following applies: in vivo.
Series [24] deals with Mus musculus. In words: Toxicity against BALB/c mouse allografted with mouse C26 cells assessed as cellular damage in liver at 10 mg/kg, iv administered for 3 hrs followed by irradiation measured after 3 days by hematoxylin and eosin staining. Type of series: organism-based. Set-up: dose 10 mg/kg, route intravenous. The following applies: in vivo, 72 h.
The subject of series [25] is Liver. Briefly: Biodistribution in liver of BALB/c mouse allografted with mouse C26 cells at 10 mg/kg, iv after 3 hrs. The series is classed as ADME, organism-based. More on the design: dose 10 mg/kg, route intravenous. The following applies: in vivo.
The test system of series [26] is C26. Briefly: Antitumor activity against mouse C26 cells allografted in BALB/c mouse at 10 mg/kg, iv followed by light irradiation measured after 3 to 7 days. More on the design: dose 10 mg/kg. Type of series: functional, organism-based.
Series [27] can be described thus: Biodistribution in serum of BALB/c mouse allografted with mouse C26 cells at 10 mg/kg, iv after 3 hrs. Type of series: ADME, organism-based. More on the design: dose 10 mg/kg, route intravenous. The following applies: read-out: Drug uptake.
The subject of series [28] is C26. Briefly: Antitumor activity against mouse C26 cells allografted in BALB/c mouse assessed as poor nuclei staining of tumor cells at 10 mg/kg, iv administered for 3 hrs followed by light irradiation measured after 3 days by hematoxylin and eosin staining relative to control. Set-up: dose 10 mg/kg. The series is classed as functional, organism-based.
The test system of series [29] is Liver. Briefly: Biodistribution in liver of BALB/c mouse allografted with mouse C26 cells at 10 mg/kg, iv after 1 to 24 hrs. More on the design: dose 10 mg/kg, route intravenous. The following applies: in vivo. Type of series: ADME, organism-based.
Series [30] concerns Serum. In words: Biodistribution in serum of BALB/c mouse allografted with mouse C26 cells at 10 mg/kg, iv after 1 to 24 hrs. Type of series: ADME, organism-based. More on the design: dose 10 mg/kg, route intravenous. The following applies: in vivo.

Active and inactive are the calls of the source. The calls are words filed in the database; no cut-off is given here.

Regarding `C=Cc1c(C)c2cc3nc(cc4[nH]c(cc5nc(cc1[nH]2)C(C)(O)/C5=C\C=N/OCC)c(C)c4CCC(=O)N(CC(=O)[O-])CC(=O)[O-])C(CCC(=O)N(CC(=O)[O-])CC(=O)[O-])=C3C.[Na+].[Na+].[Na+].[Na+]` (stereo unspecified), in [1], the concentration at 6 h was 3400 ng/g. For the same compound, the Drug uptake result in series [2] was “Not Active”; in series [5], “Not Active”; in [6] it was “Not Active”; in [8], “Active”; in series [10], “Active”; in series [11], “Not Active”. For the same compound, the Drug uptake entry in series [12] is “Not Active”; in series [13] it was “Active”; in series [14], “Active”; in series [17], “Active”; in series [18], “Not Active”; in series [19] it was “Not Active”. Also, the Drug uptake result in series [21] was “Active”; in series [22], “Active”; in series [23] it was “Not Active”; in series [25], “Active”. In addition, the outcome in [3], in [4], in series [9] and in [28] was Active. The concentration in solution in [7] (solubility) was 100000 µg/mL. The Activity result in [15] and in series [24] was “Non-toxic” throughout. In addition, the concentration at 1 h in series [16] is 17200 ng/g. Also, the figures for the concentration at 3 h in series [20] and in [27] were 690 ng/g and 8400 ng/g, respectively. In [26], the TGI result was “Active”.
For the compound `C=Cc1c(C)c2cc3nc(cc4[nH]c(cc5nc(cc1[nH]2)C(C)(O)/C5=C\CO)c(C)c4CCC(=O)[O-])C(CCC(=O)[O-])=C3C.[Na+].[Na+]` (stereo unspecified), in series [7], the solubility – broadly, the dissolved amount per volume that the medium holds – was determined as 10000 µg/mL. Besides, in [17], the Drug uptake result was “Not Active”.
As to `C=Cc1c(C)c2cc3nc(cc4[nH]c(cc5nc(cc1[nH]2)C(C)(O)/C5=C\C=N/OCC)c(C)c4CCC(=O)[O-])C(CCC(=O)[O-])=C3C.[Na+].[Na+]` (stereo unspecified), the concentration in solution in [7] (solubility) was 10000 µg/mL. Also, the Drug uptake entry in series [29], in series [30] and in series [17] was “Active” each time. Further, the concentration at 1 h in series [16] was 24200 ng/g. For the same compound, the concentration at 3 h in series [27] stood at 5900 ng/g.
